Measurements as given in paper PMC2864270 (PLoS Neglected Tropical Diseases, 2010).
Like-named read-outs stand apart in the source and are kept apart here.

How the values were obtained:
[1] = system: L. major intracellular amastigotes; test: Intracellular amastigotes assay, L. major infecting THP-1 macrophages (image-based infection ratio); assay type: cell-based; conditions: Leishmania major, 96 h, intracellular amastigotes infecting THP-1 macrophages, 4 days incubation, read-out: L. major EC50 amastigote
Description: (§1) THP-1 cells were cultivated in suspension at a density of 10^5 to 10^6 cells/mL in RPMI (Gibco 1640, United States) medium supplemented with 10% heat-inactivated FBS and 1% streptomycin/penicillin at 37°C and 5% CO2. The differentiation of THP-1 into macrophages was induced by incubation of the cells for 48 hours with phorbol 12-myristate 13-acetate (PMA) at 50 ng/ml. For infection, late-stage L. major or L. donovani rich in metacyclic promastigotes was added to differentiated THP-1 cells (ratio of 50 parasites to 1 host cell) in Evotec™ 384-well microplates using a FlexDrop™ (Perkin Elmer) to dispense 50 µL/well. Compounds were added 24 hours after infection and microplates were incubated at 37°C and 5% CO2 for 4 days. Amphotericin B as the reference compound (positive control) at 10 µM as the EC100 and 1% DMSO (negative control) were used in all the plates for data normalization (see bellow). […] Microplates were read in an Opera confocal microscope (Perkin Elmer), enabling the determination of the infection ratio of the parasites by image analysis. […] The macrophage nuclei and internalized parasites were identified and counted if localized in the foreground previously selected (Figure S1). With this technique, extracellular parasites were not considered in the calculations, and the infection ratio was determined by the number of infected cells divided by the total number of cells after normalization based on the controls. The average infection ratios from the positive and negative controls were normalized to 0% and 100% infection, and the infection ratio read from each compound activity was proportionally distributed within this range. […]
(§2) Infection of human macrophage cells in vitro with Leishmania has been previously described as a suitable model for screening and was adopted for our purpose. […] The average Z-factor calculated per plate based on the reference drug (amphotericin B) and carrier (1% DMSO) was 0.62 for L. major infection and 0.59 for L. donovani infection, and minimum accepted Z-factor for the analysis was 0.5.

[2] = Human cell toxicity test, resazurin viability; assay type: cell-based; conditions: THP-1 cells (non-differentiated); THP-1 human cell line; read-out: Cytotoxicity CC50 THP-1
Description: To assess the cytotoxicity of compounds on THP-1, an acute monocytic leukemia-derived human cell line (ATCC TIB-202™), a viability assay also using resazurin reduction with minor modifications in concentration and incubation time was performed. Z-factor [15] and other parameters were used for secondary screening validation and hit exclusion.
To exclude potentially toxic compounds from the active list, we performed a secondary viability screening using the non-differentiated human macrophage cell line THP-1. Compounds that interfered with THP-1 viability at a concentration of 10 µM or lower were discarded.

L. donovani promastigote = test: Resazurin viability assay, L. donovani promastigotes; assay type: cell-based; conditions: Leishmania donovani
Description: (§3) L. major MHOM/IL/81/FRIEDLIN and L. donovani MHOM/ET/67/HU3 promastigotes were cultivated at 28°C in axenic M199 culture medium (Welgene, S. Korea) supplemented with 10% heat-inactivated fetal bovine serum (FBS) (Gibco, United States) and 1% streptomycin/penicillin (Gibco, United States).
After compound addition to the assay plate (Evotec™ 384-well microplate, Germany), 20,000 L. major promastigote parasites from an exponential phase culture (∼10^7 parasites/mL) were diluted in M199, seeded in 50 µL per well using FlexDrop™ and incubated at 28°C for 28 hours, followed by the addition of 5 mM resazurin sodium salt (Sigma R7017, United States) and further incubation for 20 hours at 28°C. After a 48-hour exposure to compounds, the reference drug (EtBr) or control (1% DMSO), the parasites were fixed with 2% paraformaldehyde (PFA) and plates were read in Victor3™ (Perkin Elmer) at 530 nm (excitation) and 590 nm (emission). This fixation step is not necessary for resazurin readout, but allows flexibility in the automation schedule and increases assay robustness by decreasing metabolic variability between populations across wells and plates. Z-factor, calculated as 1−(3×σp+3×σn)/(|μp−μn|), where μp, σp, μn and σn are the means (μ) and standard deviations (σ) of both the positive (p) and negative (n) controls, and other parameters, including DRC plates for verification of the reference drug EC50 (accepted if within the range of 3× higher or lower than a defined value from the literature), coefficient of variation not higher than 10% in the controls and edge effect evaluation, were used for screening validation and hits selection.
Infection of human macrophage cells in vitro with Leishmania has been previously described as a suitable model for screening and was adopted for our purpose. The 124 active compounds selected from the secondary assay were tested in 10-point dose response with 2-fold serial dilutions starting from 20 µM against promastigotes and intracellular amastigotes of L. major and L. donovani infecting macrophages. The average Z-factor calculated per plate based on the reference drug (amphotericin B) and carrier (1% DMSO) was 0.62 for L. major infection and 0.59 for L. donovani infection, and minimum accepted Z-factor for the analysis was 0.5.

CYP2D6 = CYP2D6 (Homo sapiens, UniProt P10635); test: CYP450 inhibition assay, fluorescent probe AMMC; assay type: in vitro ADME; conditions: for IC50: individual human P450s, eight-point curve
CYP2D6, sequence (P10635 whole entry): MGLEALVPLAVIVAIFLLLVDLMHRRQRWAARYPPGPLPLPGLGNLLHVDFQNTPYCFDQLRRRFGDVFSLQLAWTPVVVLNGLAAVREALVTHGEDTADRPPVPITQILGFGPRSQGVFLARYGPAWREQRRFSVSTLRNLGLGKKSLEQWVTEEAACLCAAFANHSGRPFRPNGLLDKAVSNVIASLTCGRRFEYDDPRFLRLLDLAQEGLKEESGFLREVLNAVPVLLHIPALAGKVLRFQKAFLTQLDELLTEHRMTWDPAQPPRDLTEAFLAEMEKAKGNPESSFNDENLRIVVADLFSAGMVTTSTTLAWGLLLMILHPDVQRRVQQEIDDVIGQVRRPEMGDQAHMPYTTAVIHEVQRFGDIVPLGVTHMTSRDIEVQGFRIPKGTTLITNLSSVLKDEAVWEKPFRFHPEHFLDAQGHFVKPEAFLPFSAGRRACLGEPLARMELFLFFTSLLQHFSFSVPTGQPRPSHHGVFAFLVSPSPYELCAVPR
Description: (§4) Individual fluorescent probe substrates were used with individual rhCYP isozymes and fluorescence detection according to a previously published method. Probe substrates were 7-benzyloxy-4-(trifluoromethyl)-coumarin (BFC) for CYP3A4 and 3-[2-(N,N-diethyl-N-methylammonium)ethyl]-7-methoxy-4-methylcoumarin (AMMC) for CYP2D6 in 0.5% DMSO. IC50 was determined using an eight-point concentration curve with three-fold serial dilutions. Victor3™ (Perkin Elmer) was used for quantification in the fluorescent method (Perkin Elmer Life and Analytical Sciences).

L. major promastigote = test: Primary screening resazurin viability assay, L. major promastigotes; assay type: cell-based, Leishmania major; conditions: for EC50: Leishmania major, promastigotes; for Active compound selection in the 4,000-compound library screen: cut-off 70% proliferation inhibition at the lowest compound concentration (0.2–0.02 µM), duplicate, data not shown
Description: as §3
After compound addition to the assay plate (Evotec™ 384-well microplate, Germany), 20,000 L. major promastigote parasites from an exponential phase culture (∼10^7 parasites/mL) were diluted in M199, seeded in 50 µL per well using FlexDrop™ and incubated at 28°C for 28 hours, followed by the addition of 5 mM resazurin sodium salt (Sigma R7017, United States) and further incubation for 20 hours at 28°C. After a 48-hour exposure to compounds, the reference drug (EtBr) or control (1% DMSO), the parasites were fixed with 2% paraformaldehyde (PFA) and plates were read in Victor3™ (Perkin Elmer) at 530 nm (excitation) and 590 nm (emission). This fixation step is not necessary for resazurin readout, but allows flexibility in the automation schedule and increases assay robustness by decreasing metabolic variability between populations across wells and plates.
The effect of compounds on Leishmania viability was assessed by fluorometric measurement of resazurin reduction. […] Reference compounds for antileishmanial activity (EtBr, amphotericin B, miltefosine and paromomycin) were tested (Fig. 1B) as a step of the validation process. […] Assay validation was performed on three separate days using 33 microplates (384 wells/plate) containing only controls. […] After assay validation, we screened a 4,000-compound library containing a number of compounds with known pharmacological properties. […] This assay was done in duplicate and results of each concentration assay are represented as individual graphs in Fig. 1D.

CYP3A4 = CYP3A4 (Homo sapiens, UniProt P08684); test: CYP450 inhibition assay, fluorescent probe BFC; assay type: in vitro ADME; conditions: for IC50: individual human P450s, eight-point curve
CYP3A4, sequence (P08684 whole entry): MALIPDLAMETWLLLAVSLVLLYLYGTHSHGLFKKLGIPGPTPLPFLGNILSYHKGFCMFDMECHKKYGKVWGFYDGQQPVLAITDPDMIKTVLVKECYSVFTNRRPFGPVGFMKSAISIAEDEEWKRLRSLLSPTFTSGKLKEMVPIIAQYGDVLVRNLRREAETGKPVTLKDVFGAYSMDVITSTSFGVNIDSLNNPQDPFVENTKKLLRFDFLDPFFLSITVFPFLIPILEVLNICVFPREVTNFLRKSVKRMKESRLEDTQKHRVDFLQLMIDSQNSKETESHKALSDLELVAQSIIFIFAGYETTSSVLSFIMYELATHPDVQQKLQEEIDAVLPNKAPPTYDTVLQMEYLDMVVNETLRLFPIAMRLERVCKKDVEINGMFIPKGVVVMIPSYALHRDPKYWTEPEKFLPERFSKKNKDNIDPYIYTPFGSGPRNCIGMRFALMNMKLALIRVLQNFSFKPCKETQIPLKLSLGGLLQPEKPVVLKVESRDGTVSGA
Description: as §4

[3] = Microsomal stability assay, human liver microsomes; assay type: in vitro ADME; conditions: 2 µM compound, 0.5 mg/mL microsomes; for parent compound remaining after 30 minutes, human liver microsomes: NADPH
Description: (§5) Compounds at a concentration of 2 µM in 0.2% DMSO were incubated with 0.5 mg/mL rat (Sprague-Dawley Rat, BD Gentest) and human (human pool donors, BD Gentest) liver microsomes in potassium phosphate buffer in a reaction started by the addition of NADPH and stopped either immediately or at 5, 10, 30, 60 or 120 minutes for a precise estimate of microsomal stability. The corresponding loss of the parent compound was determined by a quadrupole liquid chromatography-mass spectrometry (LC-MS) with diode-array detection (Agilent 1200, Agilent Technology). The samples were passed through trapping cartridges (Security Guard Cartridge, Gemini C18, 4×2.0 mm, 3 µm, Phenomenex) followed by an analytical column (Gemini C18, 50×2.0 mm, 3 µm, Phenomenex). Positive electrospray ionization (ESI+) was employed for this analysis. The mobile phases A (water with 0.1% formic acid) and B (acetonitrile with 0.1% formic acid) were used at a flow rate of 0.3 mL/min. Gradient elution started with 95% mobile phase A and 5% mobile phase B. Elution was changed to a linear gradient until 50% A and B for 1 min. This condition was held for 0.5 min, then increased to 95% B over 0.5 min, and held for 1.5 min. Then, the elution gradient returned to 95% A and 5% B over 0.5 min, was held for the remaining 3.5 min. The percentage of the remaining compound was calculated by comparison with the initial quantity at 0 min. Half-life was calculated based on first-order reaction kinetics.

[4] = system: L. donovani intracellular amastigotes; test: Intracellular amastigotes assay, L. donovani infecting THP-1 macrophages (image-based infection ratio); assay type: cell-based; conditions: Leishmania donovani, 96 h, intracellular amastigotes infecting THP-1 macrophages, 4 days incubation, read-out: L. donovani EC50 amastigote
Description: as §1, §2

[5] = Microsomal stability assay, rat liver microsomes; assay type: in vitro ADME, Sprague-Dawley Rat; conditions: 2 µM compound, 0.5 mg/mL microsomes; for half-life at 2 µM: Sprague-Dawley, rat, liver microsomes, first-order kinetics, read-out: theoretical half-life, rat liver microsomes
Description: as §5

[6] = promastigotes, 10-point dose response, 2-fold dilutions from 20 µM, read-out: L. donovani EC50 promastigote
[7] = 10-point dose response, 2-fold dilutions from 20 µM, read-out: L. major EC50 promastigote
[8] = Fig. 1B, HTS format, read-out: EC50 of reference compound, L. major (black line)
[9] = Fig. 1B, HTS format, promastigotes, read-out: EC50 of reference compound, L. donovani (grey dashed line)

For `COc1cc(/C=N/NC(=O)c2cccc(C)c2O)ccc1OCc1ccccc1` [CA272], the EC50 [1] was 800 nM, the CC50 [2] was over 10 µM and the EC50 (L. donovani promastigote; [6]) was 2700 nM. It also gave an EC50 (CYP2D6) of over 10 µM, an IC50 (CYP2D6) of over 10 µM and an EC50 (L. major promastigote; [7]) of 2.7 µM. The EC50 (CYP3A4) was 3.41 µM, the IC50 (CYP3A4) was 3.41 µM and the “parent compound remaining after 30 minutes, human liver microsomes” value [3] was 77.8%. The half-life at 2 µM ([3]; human, liver microsomes, first-order kinetics, read-out: theoretical half-life, human liver microsomes) was 79.4 min, the EC50 [4] was 19000 nM and the “parent compound remaining, rat liver microsomes” value ([5]; NADPH, 30 minutes) was 53.3%. For the same compound, the half-life at 2 µM [5] was 31.8 min.

Compound `Cc1nc2c(Cl)cccc2c(O)c1CN1CCCCC1C` (stereo not shown) [CH872] has an EC50 [1] of 300 nM, a CC50 [2] of over 10 µM and an EC50 (L. donovani promastigote; [6]) of 50 nM. It also gave an EC50 (CYP2D6) of over 10 µM, an IC50 (CYP2D6) of over 10 µM and an EC50 (L. major promastigote; [7]) of 0.1 µM. For the same compound, the EC50 (CYP3A4) was over 10 µM, the IC50 (CYP3A4) was over 10 µM and the “parent compound remaining after 30 minutes, human liver microsomes” value [3] was 99.6%. For the same compound, the “theoretical half-life, human liver microsomes” value ([3]; first-order kinetics) was “long”, the EC50 [4] was 60 nM and the “time after which completely degraded, rat liver microsomes” value [5] was 25 min. The half-life at 2 µM [5] was 4.1 min.

`CC[n+]1c(-c2ccccc2)c2cc(N)ccc2c2ccc(N)cc21` [EtBr, Ethidium bromide] gave an EC50 (L. donovani promastigote; read-out: EC50 of reference compound, L. donovani (grey dashed line)) of 5 nM and an EC50 (L. major promastigote; [8]) of 0.014 µM.

For `C[C@@H]1[C@H](O)[C@@H](C)/C=C/C=C/C=C/C=C/C=C/C=C/C=C/[C@H](O[C@@H]2O[C@H](C)[C@@H](O)[C@H](N)[C@@H]2O)C[C@@H]2O[C@](O)(C[C@@H](O)C[C@@H](O)[C@H](O)CC[C@@H](O)C[C@@H](O)CC(=O)O[C@H]1C)C[C@H](O)[C@H]2C(=O)O` [amphotericin B, reference compound], the EC50 [1] was 1060 nM, the EC50 (L. donovani promastigote; [9]) was 1300 nM and the EC50 (L. major promastigote; [8]) was 3.9 µM. It also gave an EC50 [4] of 820 nM.

In the case of `COc1ccc(C[C@H]2NC[C@H](O)[C@H]2OC(C)=O)cc1` [anisomycin], the “Active compound selection in the 4,000-compound library screen” value (“Active compound selection” below) (L. major promastigote) is reported as “active”.

For `COc1ccc2cc3[n+](cc2c1OC)CCc1cc2c(cc1-3)OCO2` [berberine chloride], the “Active compound selection” value (L. major promastigote) was “active”.

With `O=C1OCCN1/N=C/c1ccc([N+](=O)[O-])o1` [furazolidone] the “Active compound selection” value (L. major promastigote) was “active”.

Compound `CCCCCCCCCCCCCCCCOP(=O)([O-])OCC[N+](C)(C)C` [miltefosine] has an EC50 (L. donovani promastigote; [9]) of 2700 nM and an EC50 (L. major promastigote; [8]) of 4.7 µM.

For `CC1CS(=O)(=O)CCN1/N=C/c1ccc([N+](=O)[O-])o1` (stereo not shown) [nifurtimox], the “Active compound selection” value (L. major promastigote) was “active”.

In the case of `NC(=O)N/N=C/c1ccc([N+](=O)[O-])o1` [nitrofural], the “Active compound selection” value (L. major promastigote) is reported as “active”.

For `NC[C@@H]1O[C@H](O[C@H]2[C@@H](O)[C@H](O[C@@H]3[C@@H](O)[C@H](N)C[C@H](N)[C@H]3O[C@H]3O[C@H](CO)[C@@H](O)[C@H](O)[C@H]3N)O[C@@H]2CO)[C@H](N)[C@@H](O)[C@@H]1O` [paromomycin], the EC50 (L. donovani promastigote; [9]) was 13000 nM and the EC50 (L. major promastigote; [8]) was 62.5 µM.

For `C=C1C(=O)O[C@H]2[C@H]1CC/C(C)=C/CC[C@@]1(C)O[C@@H]21` [parthenolide], the “Active compound selection” value (L. major promastigote) was “active”.

In the case of `N=C(N)c1ccc(OCCCCCOc2ccc(C(=N)N)cc2)cc1` [pentamidine isethionate], the “Active compound selection” value (L. major promastigote) is reported as “active”.
